Molecules are shown by their SMILES. Like-named read-outs stand apart in the source and are kept apart here.

Data set [1] relates to A-type flu virus (jifang/90-15).
Data set [2] relates to MDCK (Madin-darby canine kidney) cells. The conditions noted are these: read-out: TC50 (toxic concentration 50%); host cells of the anti-flu virus test.
Data set [3] concerns A-type flu virus (jifang/90-15). Description: organism not typed. Particulars: MDCK, 36 h, read-out: Activity for inhibiting A-type flu viruses IC50.
Data set [4] in a line: in vitro. Particulars: dog.
The test system of data set [5] is B-type flu virus (jifang/97-13). Briefly: organism not typed. Particulars: MDCK, 36 h, read-out: Activity for inhibiting B-type flu viruses IC50.
The test system is the same in data set [6]. The conditions noted are these: read-out: Activity for inhibiting B-type flu viruses IC50.
[7] abbreviates: read-out: Activity for inhibiting A-type flu viruses IC50.
[8] abbreviates: read-out: IC50, inhibit A-type flu virus.

With `C=C(C(=O)Oc1ccc(Br)cc1)C1CCC(C)C2CC(=O)C(C)=C2C1` (centres unmarked) [B-4, Rupestonic (p-bromophenyl)-ester], the IC50 in data set [1] (setting [7]) is 10.2 µM. Moreover, the CC50 in data set [2] came out at 44.2 µM.
As to `C=C(C(=O)Oc1ccc(Cl)cc1)C1CCC(C)C2CC(=O)C(C)=C2C1` (centres unmarked) [B-2, Rupestonic (p-chlorophenyl)-ester], in data set [1] (setting [8]), the IC50 came out at 19.1 µM. The CC50 in data set [2] amounted to 240 µM.
For `CCOC(=O)C1=C[C@@H](OC(CC)CC)[C@H](NC(C)=O)[C@@H](N)C1` [Oseltamivir], in data set [3], the IC50 was 5.1 µM. Besides, the CC50 in data set [4] is greater than 1220 µM.
On to `NC(=O)c1ncn([C@@H]2O[C@H](CO)[C@@H](O)[C@H]2O)n1` [Ribavirin], for which the IC50 in data set [3] amounted to 1.6 µM; in data set [5], 11.9 µM. Also, the CC50 in data set [4] came to 1570 µM.
On to `C=C(C(=O)Oc1ccc(C)cc1)C1CCC(C)C2CC(=O)C(C)=C2C1` (centres unmarked) [B-9, Rupestonic (p-methylphenyl)-ester], for which the IC50 in data set [1] (setting [8]) was 13.4 µM. The CC50 in data set [2] came out at 191 µM.
As to `C=C(C(=O)OCc1ccc([N+](=O)[O-])cc1)C1CCC(C)C2CC(=O)C(C)=C2C1` (centres unmarked) [B-15, Rupestonic (p-nitryl-benzyl)-ester], the IC50 in data set [1] (setting [7]) and in data set [6] was 5.5 µM throughout. The CC50 in data set [2] stood at 25 µM.
In the case of `C=C(C(=O)OCC)C1CCC(C)C2CC(=O)C(C)=C2C1` (centres unmarked) [B-1, Ethyl Rupestonic ester], the 50% inhibitory concentration (IC50) in data set [1] (setting [7]) turned out to be 39.1 µM; in data set [6] it was 50.9 µM. For the same molecule, in data set [2], the CC50 turned out to be 194 µM.
On to `C=C(C(=O)OCc1ccccc1Br)C1CCC(C)C2CC(=O)C(C)=C2C1` (centres unmarked) [B-17, Rupestonic (o-bromobenzyl)-ester], for which the values for the concentration for half-maximal inhibition (IC50) in data set [1] (setting [7]) and in data set [6] were 15.2 µM and 25.7 µM, respectively. For the same molecule, the CC50 in data set [2] was determined as 57.3 µM.
Regarding `C=C(C(=O)Oc1ccccc1Cl)C1CCC(C)C2CC(=O)C(C)=C2C1` (centres unmarked) [B-3, Rupestonic (o-chlorophenyl)-ester], in data set [1] (setting [7]), the concentration for half-maximal inhibition (IC50) turned out to be 11.5 µM. The CC50 in data set [2] worked out at 49.7 µM.
Turning to `C=C(C(=O)Nc1ccccc1Br)C1CCC(C)C2CC(=O)C(C)=C2C1` (centres unmarked) [A-5, N(2-bromo-phenyl)-Rupestonic amide], the IC50 in data set [1] (setting [7]) was 49 µM. For the same molecule, the CC50 in data set [2] turned out to be 160 µM.
Turning to `C=C(C(=O)Nc1ccc(Cl)cc1)C1CCC(C)C2CC(=O)C(C)=C2C1` (centres unmarked) [A-2, N(4-chloro-phenyl)-Rupestonic amide], the IC50 came to 19.2 µM in data set [1] (setting [7]) and 29.9 µM in data set [6]. Moreover, the CC50 in data set [2] came to 121 µM.
For `C=C(C(=O)OCc1ccc(Cl)cc1)C1CCC(C)C2CC(=O)C(C)=C2C1` (centres unmarked) [B-14, Rupestonic (p-chlorobenzyl)-ester] the same measures were 12.5 µM, 19.1 µM and 47.7 µM.
With `C=C(C(=O)O)[C@H]1CC[C@H](C)[C@@H]2CC(=O)C(C)=C2C1` [Compound 1, rupestonic acid], the half-maximal inhibitory concentration (IC50) in data set [6] is 116 µM. The CC50 in data set [2] is 1040 µM.

Values taken from US20100087523A1, “Rupestonic acid derivatives and use thereof” (priority 2008, published 2010).
